Patent US20080299101A1, “Cancer Treatment Resistance and Agents Modulating Such Resistance” (CENTRE NATIONAL DE LA RECHERCHE SCIENTIFIQUE (CNRS INSTITUT …, priority 2004, published 2008)
“Also recorded” adds a separate entry of the source. *1 amine or outer side, *2 acyl side, *3 side chain or, on linkers, in order; H or OH if unused. Where a SMILES comes first, the peptide text is derived from it. Bridges are numbered along the chain shown (N, C = ends). Roman numbers before positions name the chains, in order. [ ]: non-standard residue; d: D form. Actinocin(9to1) = Cc1c2oc3c(C)ccc(C(=O)[*:1])c3nc-2c(C(=O)[*:2])c(N)c1=O; NMeV = CN[C@H](C(=O)O)C(C)C; Sar = CNCC(=O)O

Experiments:
[1] = tested on: HCT116/R2; details: oxaliplatin 0 μM (actD alone)
Protocol: (§1) Cytotoxicity assays were performed by seeding 4000 cells per well in 96 well plates. […] Cytotoxicity measurements were carried out using the WST-1 colorimetric assay (Boehringer Mannheim) according to the manufacturer's recommendation.

[2] = tested on: HCT116/R1; details: oxaliplatin 0 μM (actD alone)
Protocol: as §1

[3] = tested on: HCT116/S; details: oxaliplatin 0 μM (actD alone)
Protocol: as §1

[4] = tested on: HCT116/S, HCT116/R1, HCT116/R2; assay: Modulation of oxaliplatin cytotoxicity using actinomycin D preincubation (statement in words); type: cell-based; details: preincubation at moderately toxic concentrations; preliminary

## Cc1c2oc3c(C)ccc(C(=O)N[C@@H]4C(=O)N[C@H](C(C)C)C(=O)N5CCC[C@H]5C(=O)N(C)CC(=O)N(C)[C@@H](C(C)C)C(=O)O[C@@H]4C)c3nc-2c(C(=O)N[C@@H]2C(=O)N[C@H](C(C)C)C(=O)N3CCC[C@H]3C(=O)N(C)CC(=O)N(C)[C@@H](C(C)C)C(=O)O[C@@H]2C)c(N)c1=O [actD, actinomycin D] (I: T[dV]P[Sar][NMeV] / II: T[dV]P[Sar][NMeV]; ester I:1-I:C, II:1-II:C; linker I:N-II:N via Actinocin(9to1))
[1]; actD 0.04 nM
  Cytotoxicity of oxali + actD 0.04 nM: 20.6%
[1]; actD 0.12 nM
  Cytotoxicity of oxali + actD 0.12 nM: 17.7%
[1]; actD 0.36 nM
  Cytotoxicity of oxali + actD 0.36 nM: 21.6%
[2]; actD 0.04 nM
  Cytotoxicity of oxali + actD 0.04 nM: 17.3%
[2]; actD 0.12 nM
  Cytotoxicity of oxali + actD 0.12 nM: 18%
[3]; actD 0.04 nM
  Cytotoxicity of oxali + actD 0.04 nM: 9.1%
[3]; actD 0.12 nM
  Cytotoxicity of oxali + actD 0.12 nM: 27.6%
[3]; actD 0.36 nM
  Cytotoxicity of oxali + actD 0.36 nM: 85.4%
[4]
  Effect of actinomycin D preincubation on oxaliplatin activity: synergy effect; also recorded: synergistic effect
